Reference: patent US10173968B2, “Bishydrazone-based antifungal agents” (University of Kentucky Research Foundation, priority 2016, dated 2019)
Several values for one entry are separate records, joined by “and”; a condition that tells them apart may be missing. Identical values can stand only once. Like-named read-outs stand apart in the source and are kept apart here.

Legend:
C. albicans ATCC 1003 = experiment: Antifungal MIC, CLSI M27-A3 microbroth dilution; format: cell-based, Candida albicans; conditions: Candida albicans, ATCC1003, read-out: MIC
Method: (§1) In vitro MIC testing was performed according to the CLSI M27-A3 standard microbroth dilution methodology for the susceptibility testing of yeasts with minor modifications.

C. albicans ATCC 64124 = experiment: Antifungal MIC, CLSI M27-A3 microbroth dilution; format: cell-based, Candida albicans; conditions: Candida albicans, ATCC64124, C. albicans ATCC 64124, resistant to FLC, ITC, and VOR, read-out: MIC
Method: as §1

C. albicans ATCC 10231 = experiment: Antifungal MIC, CLSI M27-A3 microbroth dilution; format: cell-based, Candida albicans; conditions: Candida albicans, ATCC10231, C. albicans ATCC 10231, resistant to FLC, ITC, and VOR, read-out: MIC
Method: as §1

C. albicans ATCC 2310 = experiment: Antifungal MIC, CLSI M27-A3 microbroth dilution; format: cell-based, Candida albicans; conditions: Candida albicans, ATCC2310, C. albicans ATCC 2310, susceptible to FLC, ITC, and VOR, read-out: MIC
Method: as §1

C. albicans ATCC 1237 = experiment: Antifungal MIC, CLSI M27-A3 microbroth dilution; format: cell-based, Candida albicans; conditions: Candida albicans, ATCC1237, C. albicans ATCC 1237, resistant to FLC, ITC, and VOR, read-out: MIC
Method: as §1

C. albicans ATCC 2876 = experiment: Antifungal MIC, CLSI M27-A3 microbroth dilution; format: cell-based, Candida albicans; conditions: Candida albicans, ATCC2876, C. albicans ATCC 2876, susceptible to FLC, ITC, and VOR, read-out: MIC
Method: as §1

C. albicans ATCC 90819 = experiment: Antifungal MIC, CLSI M27-A3 microbroth dilution; format: cell-based, Candida albicans; conditions: Candida albicans, ATCC90819, C. albicans ATCC 90819, resistant to FLC, ITC, and VOR, read-out: MIC
Method: as §1

B. subtilis 168 = experiment: Antibacterial MIC, double-dilution method; format: cell-based; conditions: Bacillus subtilis, strain A, Gram-positive
Method: (§2) MIC values were determined against a variety of Gram-positive (strains A-D) and Gram-negative (E-J) bacterial and mycobacterial (K) strains using the double-dilution method, as previously published. Preliminary screening was performed using 500 μM of each compound.

A. baumannii ATCC 19606 = experiment: Antibacterial MIC, double-dilution method; format: cell-based; conditions: Acinetobacter baumannii, ATCC19606, strain E, Gram-negative, read-out: MIC
Method: as §2

MRSA = experiment: Antibacterial MIC, double-dilution method; format: cell-based; conditions: Staphylococcus aureus, strain C, Gram-positive, read-out: MIC
Method: as §2

VRE = experiment: Antibacterial MIC, double-dilution method; format: cell-based; conditions: Enterococcus, strain D, Gram-positive, read-out: MIC
Method: as §2

S. enterica ATCC 14028 = experiment: Antibacterial MIC, double-dilution method; format: cell-based; conditions: Salmonella enterica, ATCC14028, strain J, Gram-negative, read-out: MIC
Method: as §2

[1] = system: L. monocytogenes ATCC 19115; experiment: Antibacterial MIC, double-dilution method; format: cell-based; conditions: Listeria monocytogenes, ATCC19115, strain B, Gram-positive, read-out: MIC
Method: as §2

E. coli MC1061 = experiment: Antibacterial MIC, double-dilution method; format: cell-based; conditions: Escherichia coli
Method: as §2

K. pneumoniae ATCC 27736 = experiment: Antibacterial MIC, double-dilution method; format: cell-based; conditions: Klebsiella pneumoniae, ATCC27736, strain H, Gram-negative, read-out: MIC
Method: as §2

[2] = system: C. albicans strains (panel of seven); experiment: Antifungal MIC, summary over the panel; format: cell-based, Candida albicans; conditions: Candida albicans; all, most or majority of the fungal strains; read-out: MIC, span over C. albicans strains
Method: In vitro MIC testing was performed according to the CLSI M27-A3 standard microbroth dilution methodology for the susceptibility testing of yeasts with minor modifications. […] MIC values were read visually for all tested compounds, and the endpoint was determined as the minimum concentration of compound that yielded complete inhibition relative to growth control.

E. cloacae ATCC 13047 = experiment: Antibacterial MIC, double-dilution method; format: cell-based; conditions: Enterobacter cloacae, ATCC13047, strain F, Gram-negative, read-out: MIC
Method: as §2

M. smegmatis MC2-155 = experiment: Antibacterial MIC, double-dilution method; format: cell-based; conditions: Mycolicibacterium smegmatis, MC2155, strain K, mycobacterial, read-out: MIC
Method: as §2

P. aeruginosa ATCC 27853 = experiment: Antibacterial MIC, double-dilution method; format: cell-based; conditions: Pseudomonas aeruginosa, ATCC27853, strain I, Gram-negative, read-out: MIC
Method: as §2

[3] = C. albicans ATCC 1003, converted from μg/mL

| SMILES | MIC (C. albicans ATCC 1003; [3]) | MIC (C. albicans ATCC 1003) | MIC (C. albicans ATCC 64124; converted from μg/mL) | MIC (C. albicans ATCC 64124) | MIC (C. albicans ATCC 10231; converted from μg/mL) | MIC (C. albicans ATCC 10231) | MIC (C. albicans ATCC 2310; converted from μg/mL) | MIC (C. albicans ATCC 2310) | MIC (C. albicans ATCC 1237; converted from μg/mL) | MIC (C. albicans ATCC 1237) | MIC (C. albicans ATCC 2876; converted from μg/mL) | MIC (C. albicans ATCC 2876) | MIC (C. albicans ATCC 90819; converted from μg/mL) | MIC (C. albicans ATCC 90819) | melting point | MIC (B. subtilis 168; converted from μM) | MIC (B. subtilis 168; range 0.5 to 500 μM) | MIC (A. baumannii ATCC 19606; converted from μM) | MIC (A. baumannii ATCC 19606; range 0.5 to 500 μM) | MIC (MRSA; converted from μM) | other results |
| --- | --- | --- | --- | --- | --- | --- | --- | --- | --- | --- | --- | --- | --- | --- | --- | --- | --- | --- | --- | --- | --- |
| C/C(=N\NC(=N)N)c1ccc(-c2ccc(/C(C)=N/Nc3ccccc3Cl)cc2)cc1.Cl [Compound 8Aa, (E)-2-(1-(4′-((E)-1-(2-(2-chlorophenyl)hydrazono)ethyl)-[1,1′-biphenyl]-4-yl)ethylidene)hydrazine-1-carboximidamide hydrochloride] | 34.3 µM | 15.6 µg/mL | 68.7 µM | 31.3 µg/mL | 34.3 µM | 15.6 µg/mL | 34.3 µM | 15.6 µg/mL | 34.3 µM | 15.6 µg/mL | 34.3 µM | 15.6 µg/mL | 34.3 µM | 15.6 µg/mL | > 380 °C | 26.6 to 53.3 µg/mL | 62.5 to 125 µM | 26.6 µg/mL | 62.5 µM | 53.3 µg/mL | MIC (MRSA; range 0.5 to 500 μM): 125 µM; MIC (VRE; converted from μM): 1.7 µg/mL; MIC (VRE; range 0.5 to 500 μM): 3.9 µM; MIC (S. enterica ATCC 14028; converted from μM): 26.3 to 53.3 µg/mL; MIC (S. enterica ATCC 14028; range 0.5 to 500 μM): 62.5 to 125 µM; MIC ([1]; converted from μM): 26.6 to 53.3 µg/mL; MIC ([1]; range 0.5 to 500 μM): 62.5 to 125 µM; MIC (E. coli MC1061): 213 µg/mL and 500 µM; MIC (K. pneumoniae ATCC 27736; converted from μM): 26.6 to 53.3 µg/mL; MIC (K. pneumoniae ATCC 27736; range 0.5 to 500 μM): 62.5 to 125 µM; MIC [2]: 7.8 to 15.6 µg/mL |
| C/C(=N\NC(=N)N)c1ccc(Cc2ccc(/C(C)=N/NC(=N)N)cc2)cc1.Cl.Cl [Compound 4C, (2E,2′E)-2,2′-((methylenebis(4,1-phenylene))bis(ethan-1-yl-1-ylidene))bis(hydrazine-1-carboximidamide) dihydrochloride] | 17.8 µM | 7.8 µg/mL | 17.8 µM | 7.8 µg/mL | 17.8 µM | 7.8 µg/mL | 17.8 µM | 7.8 µg/mL | 17.8 µM | 7.8 µg/mL | 8.9 µM | 3.9 µg/mL | 17.8 µM | 7.8 µg/mL | 342 to 344 °C | > 219 µg/mL | > 500 µM | > 219 µg/mL | > 500 µM | 1.7 µg/mL | MIC (E. cloacae ATCC 13047; converted from μM): > 219 µg/mL; MIC (E. cloacae ATCC 13047; range 0.5 to 500 μM): > 500 µM; MIC (MRSA; range 0.5 to 500 μM): 3.9 µM; MIC (VRE; converted from μM): 0.9 µg/mL; MIC (VRE; range 0.5 to 500 μM): 2 µM; MIC (M. smegmatis MC2-155; converted from μM): 0.9 µg/mL; MIC (M. smegmatis MC2-155; range 0.5 to 500 μM): 2 µM; MIC (S. enterica ATCC 14028; converted from μM): > 219 µg/mL; MIC (S. enterica ATCC 14028; range 0.5 to 500 μM): > 500 µM; MIC ([1]; converted from μM): 1.7 µg/mL; MIC ([1]; range 0.5 to 500 μM): 3.9 µM; MIC (E. coli MC1061; strain G, Gram-negative, converted from μM, read-out: MIC): > 219 µg/mL; MIC (E. coli MC1061; strain G, Gram-negative, range 0.5 to 500 μM, read-out: MIC): > 500 µM; MIC (P. aeruginosa ATCC 27853; converted from μM): > 219 µg/mL; MIC (P. aeruginosa ATCC 27853; range 0.5 to 500 μM): > 500 µM; MIC (K. pneumoniae ATCC 27736; converted from μM): > 219 µg/mL; MIC (K. pneumoniae ATCC 27736; range 0.5 to 500 μM): > 500 µM |
